Patent publication US10919785B2, “Hydraulic conveyor of floating objects provided with a device for sanitising conveying composition, plant provided with such a conveyor and sanitising method” (MAF AGROBOTIC, priority 2016, dated 2021)

test: Example 5: pilot device, degradation of four pesticides (FIG. 6); type: physicochemical; conditions: initial boscalid 250, thiacloprid 100, fludioxonil 100, pyraclostrobin 125 μg/l; initial hydrogen peroxide 2 μg/l; 6 m^3/h, five lamps on
Text: A semi-industrial pilot device in accordance with one aspect of the invention comprises a tank for recirculating water to be treated of a volume of 1000 l, a circulation pump ensuring a circulation flow of the water to be treated in a sanitising device with a flow rate between 4 m^3 to 8 m^3/h. The sanitising device comprises a photolysis chamber comprising an inlet for water from the recirculation tank and an outlet for sanitised water directed to the recirculation tank. The photolysis chamber is formed of a rigid tubular envelope, of which the external wall is opaque to light and forming an inner space suitable for receiving five fluorescent tubes with a longitudinal axis extending in parallel with the longitudinal axis of the rigid tubular envelope. The inner volume of the decontamination reactor is in the order of […].
The five fluorescent tubes are tubes of 200 W emitting light at a wavelength of 254 nm and arranged longitudinally in the tubular envelope at the five points of a regular pentagon and in contact with the water to be treated flowing in the photolysis chamber. In this configuration of the sanitising device, the water to be sanitised flowing in contact with the five fluorescent tubes is subjected to substantially homogeneous illumination in the order of 500 mJ/cm^2 for a circulation flow rate of water to be sanitised in the order of 6 m^3/h. The semi-industrial pilot device also comprises a tank for storing an aqueous solution of hydrogen peroxide (H2O2) provided with a pump for distributing said solution in the circulation flow of water to be sanitised issuing into the circuit of water to be sanitised upstream of and in proximity to the photolysis chamber. The concentration of the hydrogen peroxide in the aqueous solution of hydrogen peroxide is between 2 m g/l and 13 mg/l. The set-point flow rate of the pump for distributing solution of H2O2 is kept at 4 l/h.
A study was carried out in a semi-industrial pilot device as described above on the degradation of boscalid, thiacloprid, fludioxonil and pyraclostrobin. […]

Structure (SMILES) | degraded within 1 hour
N#C/N=C1\SCCN1Cc1ccc(Cl)nc1 [thiacloprid] | more than 95%
N#Cc1c[nH]cc1-c1cccc2c1OC(F)(F)O2 [fludioxonil] | 90%
COC(=O)N(OC)c1ccccc1COc1ccn(-c2ccc(Cl)cc2)n1 [pyraclostrobin] | 85%
